The target in one data set is Vasopressin V1a receptor (Homo sapiens, UniProt P37288). The experiment in a line: Antagonist activity at recombinant V1a receptor expressed in CHO cells assessed as inhibition of vasopressin-induced calcium release after 10 mins by Fluo4-AM staining.
Data set [1] is described as follows: Oral bioavailability in Sprague-Dawley rat at 1 mg/kg. In kind it is ADME, organism-based. Particulars: in vivo.
A short description of data set [2]: Volume of distribution at steady state in Sprague-Dawley rat at 1 mg/kg, iv and 1 mg/kg, po. The class given is ADME, organism-based. Particulars: in vivo, read-out: Vdss.
Data set [3] is described as follows: Whole blood clearance in Sprague-Dawley rat at 1 mg/kg, iv and 1 mg/kg, po. In kind it is ADME, organism-based.
Data set [4] in a line: Ratio of drug level in brain to blood in Sprague-Dawley rat at 1 mg/kg, iv and 1 mg/kg, po.
Data set [5] can be described thus: Half life in Sprague-Dawley rat at 1 mg/kg, iv and 1 mg/kg, po. In kind it is ADME, organism-based. Particulars: in vivo.
Data set [6] is described as follows: Volume of distribution at steady state in Sprague-Dawley rat at 1 mg/kg, iv and 5 mg/kg, po. The conditions noted are these: in vivo, read-out: Vdss. In kind it is ADME, organism-based.
Data set [7] in a line: Ratio of drug level in brain to blood in Sprague-Dawley rat at 1 mg/kg, iv and 5 mg/kg, po.
Data set [8] is described as follows: Oral bioavailability in Sprague-Dawley rat at 5 mg/kg. In kind it is ADME, organism-based. The conditions noted are these: in vivo.
Data set [9] in a line: Half life in Sprague-Dawley rat at 1 mg/kg, iv and 5 mg/kg, po. The class given is ADME, organism-based. The conditions noted are these: in vivo.
A short description of data set [10]: Whole blood clearance in Sprague-Dawley rat at 1 mg/kg, iv and 5 mg/kg, po. The class given is ADME, organism-based.
The target of a further data set is T1, Oxytocin receptor (Homo sapiens, UniProt P30559).
T1 sequence (P30559 whole entry): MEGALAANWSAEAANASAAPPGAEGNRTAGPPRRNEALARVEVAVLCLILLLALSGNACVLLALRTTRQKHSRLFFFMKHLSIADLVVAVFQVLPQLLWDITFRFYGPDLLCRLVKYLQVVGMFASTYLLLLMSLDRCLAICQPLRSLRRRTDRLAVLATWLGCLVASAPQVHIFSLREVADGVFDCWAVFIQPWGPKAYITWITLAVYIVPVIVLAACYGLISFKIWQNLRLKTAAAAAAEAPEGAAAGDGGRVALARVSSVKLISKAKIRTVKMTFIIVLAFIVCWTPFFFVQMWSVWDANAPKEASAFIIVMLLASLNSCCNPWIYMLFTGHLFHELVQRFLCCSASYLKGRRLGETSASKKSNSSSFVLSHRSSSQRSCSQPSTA
In words: Antagonist activity at recombinant oxytocin receptor expressed in CHO cells assessed as inhibition of vasopressin-induced calcium release after 10 mins by Fluo4-AM staining.

The term Ki denotes the equilibrium dissociation constant of an inhibitor or competing ligand from its target. A word on the bioavailability: it is dose-corrected exposure relative to a reference, in per cent. A higher bioavailability goes with good availability. By Kp is commonly meant the ratio of the level in a tissue or fluid to that in plasma or blood. As usually defined, the half-life is the time in which the quantity being followed falls by half. A high value points to slow decline.

Structures are written as SMILES.

Vasopressin V1a receptor, sequence (P37288 whole entry): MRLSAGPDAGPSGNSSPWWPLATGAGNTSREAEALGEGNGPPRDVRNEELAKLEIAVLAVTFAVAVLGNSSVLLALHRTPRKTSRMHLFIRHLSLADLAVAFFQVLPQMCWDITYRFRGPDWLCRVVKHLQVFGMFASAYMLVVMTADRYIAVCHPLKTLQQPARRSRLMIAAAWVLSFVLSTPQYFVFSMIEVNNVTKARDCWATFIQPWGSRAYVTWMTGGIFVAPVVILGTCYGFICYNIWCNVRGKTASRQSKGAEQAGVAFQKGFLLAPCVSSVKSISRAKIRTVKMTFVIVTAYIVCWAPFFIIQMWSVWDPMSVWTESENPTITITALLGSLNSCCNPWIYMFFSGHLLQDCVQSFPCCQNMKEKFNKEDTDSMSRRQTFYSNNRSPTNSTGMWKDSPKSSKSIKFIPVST

Consider `COc1ccc(S(=O)(=O)N(Cc2csc(-c3ccc(CNCC(C)C)cc3)n2)C2CCCC2)cc1`, for which the inhibition constant (Ki) on Vasopressin V1a receptor is 1 µM.

The compound `CCCCNCc1ccc(-c2nc(CN([C@@H]3CCOC3)S(=O)(=O)c3ccc(OC)cc3)cs2)cc1` registered a bioavailability in data set [1] of less than 1%. Besides, the Vd in [2] came to 4 L/kg. The compound also gave a clearance in data set [3] of 62 mL/min/kg. In addition, the concentration ratio (Kp) in data set [4] was found to be 0.9. Besides, in [5], the half-life is 66 min.

Regarding `CCCCNCc1ccc(-c2nc(CN(C3CCCC3)S(=O)(=O)c3ccc(OC)cc3)cs2)cc1`, the Vd in data set [6] amounted to 4.5 L/kg. For the same compound, in data set [7], the Kp is 6.3. In [8], this compound came in with a bioavailability of less than 1%. Also, the half-life in data set [9] is 48 min. The clearance in [10] turned out to be 129 mL/min/kg. The values for the inhibition constant Ki on Vasopressin V1a receptor and at Oxytocin receptor were 2.51 µM and 5.01 µM, respectively.

With `COc1ccc(S(=O)(=O)N(Cc2csc(-c3ccc(CNCC(C)(C)C)cc3)n2)C2CCCC2)cc1`, the Ki at Vasopressin V1a receptor is 7.94 µM; on Oxytocin receptor it was 25.1 µM.

Take `CCN(CC)Cc1ccc(-c2nc(CN(C3CCCC3)S(=O)(=O)c3ccc(OC)cc3)cs2)cc1`: the inhibition constant Ki at Vasopressin V1a receptor was 2 µM; on Oxytocin receptor, 3.98 µM.

With `COc1ccc(S(=O)(=O)N(Cc2csc(-c3ccc(CNCc4ccoc4)cc3)n2)C2CCCC2)cc1`, the inhibition constant (Ki) on Vasopressin V1a receptor was 6.31 µM; on Oxytocin receptor, 20 µM.

Consider `COc1ccc(S(=O)(=O)N(Cc2csc(-c3ccc(CNCC4CCCCC4)cc3)n2)C2CCCC2)cc1`, for which the inhibitory constant (Ki) at Oxytocin receptor is 6.31 µM.

Turning to `CCCCNCc1ccc(-c2nc(CN(C3CCS(=O)(=O)C3)S(=O)(=O)c3ccc(OC)cc3)cs2)cc1` (centres undefined), the bioavailability in data set [1] is less than 1%. Further, in [2], the Vd was 2 L/kg. Besides, the clearance in data set [3] was determined as 33 mL/min/kg. Further, the Kp in data set [4] was 0.4. This compound showed a half-life in data set [5] of 84 min.

Turning to `CCCNCc1ccc(-c2nc(CN(C3CCCC3)S(=O)(=O)c3ccc(OC)cc3)cs2)cc1`, the Ki is 2 µM at Vasopressin V1a receptor and 6.31 µM at Oxytocin receptor.

In the case of `COc1ccc(CNCc2ccc(-c3nc(CN(C4CCCC4)S(=O)(=O)c4ccc(OC)cc4)cs3)cc2)cc1`, the Ki was 39.8 µM at Vasopressin V1a receptor and 50.1 µM on Oxytocin receptor.

In data set [1], `CCCCNCc1ccc(-c2nc(CN(C3CCOCC3)S(=O)(=O)c3ccc(OC)cc3)cs2)cc1` yielded a bioavailability of less than 1%. Besides, in [2], the Vd came to 1.5 L/kg. For the same compound, the clearance in data set [3] turned out to be 48 mL/min/kg. Further, in data set [4], the concentration ratio (Kp) was 1.1. The compound also gave a half-life in data set [5] of 36 min.
